The results in this text go back to article PMC10867575, “Functional validation of novel levamisole resistance marker S168T in Haemonchus contortus” (International Journal for Parasitology: Drugs and Drug …, 2024).

Read-outs that look alike come from different tables or passages of the source.

This test relates to T1, Hco-L-AChR-1.1 (UNC-29.1/UNC-38/UNC-63/ACR-8).
T1 construct: cRNAs co-injected in Xenopus laevis oocytes with H. contortus ancillary ric-3.1, unc-50, unc-74; wild-type clones from earlier studies; S168T acr-8 cloned from isolate MHco18 (UGA2004), vector pTB207
Kind of test: two-electrode voltage clamp, Xenopus oocytes. In kind it is cell-based, Haemonchus contortus. Conditions: agonist, 100 mM NaCl, 2.5 mM KCl, 1 mM CaCl2, 5 mM HEPES, pH 7.3, currents normalised to 100 μM ACh. The text has this:
two-electrode voltage clamp, Xenopus oocytes on Hco-L-AChR-1.1 (UNC-29.1/UNC-38/UNC-63/ACR-8)
In general terms: Two-electrode voltage clamp holds a large cell at a set potential and records current.

As for `CC(=O)OCC[N+](C)(C)C` [ACh, acetylcholine], the EC50 (commonly the concentration that produces a half-maximal response) (read-out: ACh EC50) amounted to 4.2 ± 1.1 µM.

As to `c1ccc([C@H]2CN3CCSC3=N2)cc1` [LEV, levamisole], the EC50 (read-out: LEV EC50) stood at 3.2 ± 1.1 µM.
